# Data as given in paper PMC7696185, “Synthesis of New 1, 3, 4-Oxadiazole-Incorporated 1, 2, 3-Triazole Moieties as Potential Anticancer Agents Targeting Thymidylate Synthase and Their Docking Studies” (Pharmaceuticals, 2020).
# Read-outs that look alike come from different tables or passages of the source.
# Assays:
# [1] = test system: MCF-7 cells; assay: MTT cytotoxicity assay, MCF-7; assay type: cell-based, human; details: for IC50: Homo sapiens, MCF7, breast cancer MCF-7, MTT, 72 h
# Method: (§1) These compounds were tested against breast MCF-7 and colorectal HCT-116 cell lines.
# The human breast cancer cell line (MCF-7) used in the present study was obtained from Dr. Neamatallah’s lab. The cells were cultured in Dulbecco’s Modified Eagle Medium (DMEM) supplemented with 10% (v/v) fetal bovine serum (FBS), 10,000 units/mL penicillin/streptomycin, and 1% (v/v) L-glutamine at 37 °C in humidified 5% CO2 incubator.
# (§2) The cytotoxicity activity was done by MTT assay. Breast MCF-7 and colorectal HCT-116 cancer cells were added at 1 × 10^5 cells/mL into a 96-well plate with three replicates, and incubated overnight for attachment at 37 °C in a 5% CO2 humidified atmosphere. Drug concentrations at six serial dilutions (100.0, 50.0, 10.0, 1.0, 0.5, and 0.1 μM) were added in triplicate and incubated at 37 °C and 5% CO2 for 72 h. Drugs were dissolved in 0.1% DMSO as a vehicle. Untreated cells were used as control. […] Thereafter, each well for each time point was removed and replaced with […] of full medium containing 10% 3-(4,5- dimethylthiaxolyl-2)-2,5-diphenyltetrazoliumbromide (MTT) (10 mg/mL). Then the media was removed and 100 µl of DMSO was added, and cells were incubated for a further 5 mins at 37 °C and 5% CO2. Plates were quantified using the SpectraMax M3 plate reader at 570 nm. The percentage inhibition was calculated as 100 − ((mean OD of treated cell × 100)/Mean OD of vehicle treated cells (DMSO)). All the experiments were repeated in at least three independent experiments (Table 2, Figure 3, Figure 4, Figure 5 and Figure 6).
# [2] = test system: HCT-116 cells; assay: MTT cytotoxicity assay, HCT-116; assay type: cell-based, human; details: for IC50: colorectal cancer HCT-116, MTT, 72 h; for fold activity compared to 5-fluorouracil, HCT-116 / fold activity compared to tamoxifen, HCT-116: ratio of IC50, HCT-116
# Method: as §1, §2
# [3] = molecular target: thymidylate synthase (TS) (Homo sapiens, UniProt P04818); assay: In vitro thymidylate synthase enzyme assay; assay type: biochemical; details: for fold activity compared to pemetrexed, TS: ratio of IC50, TS enzyme
# thymidylate synthase (TS), sequence (P04818 whole entry): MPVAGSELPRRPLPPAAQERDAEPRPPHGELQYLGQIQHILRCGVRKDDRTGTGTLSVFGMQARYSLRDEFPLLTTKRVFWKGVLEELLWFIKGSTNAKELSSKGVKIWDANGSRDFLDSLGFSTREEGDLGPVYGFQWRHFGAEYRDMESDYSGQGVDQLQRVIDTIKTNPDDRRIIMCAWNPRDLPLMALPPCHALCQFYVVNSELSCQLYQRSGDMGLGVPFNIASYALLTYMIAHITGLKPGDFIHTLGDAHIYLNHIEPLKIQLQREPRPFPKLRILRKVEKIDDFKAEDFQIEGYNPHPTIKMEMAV
# Method: The inhibition of this enzyme plays a vital role in chemotherapy treatment. […] This inactivation of dTMP results in a reduction of deoxythymidine triphosphate (dTTP), leading to the disruption of DNA synthesis and cessation of cell growth and proliferation (Figure 7).
# A thymidylate synthase enzymatic assay was carried out according to the reported method. It involves a mixture containing 2-mercaptoethanol (0.1 M), (6R,S)-tetrahydrofolate (0.0003 M), formaldehyde (0.012 M), MgCl2 (0.02 M), dUMP (0.001 M), TrisHCl (0.04 M), and NaEDTA (0.00075 M).This assay was done spectrophotometrically at 30° C and pH 7.4. The reaction was initiated by the addition of an amount of enzyme, giving a change in absorbance at 340 nm of 0.016/min in the absence of inhibitor. The percent inhibition was determined at a minimum of four inhibitor concentrations within 20% of the 50% point.
# [4] = test system: HEK 293 cells; assay: MTT assay on non-tumorigenic cell line HEK 293; assay type: cell-based; details: HEK293, normal human embryonic kidney cells
# [5] = spectrophotometric, 340 nm, 30 °C, pH 7.4, read-out: IC50 thymidylate synthase
melting point [°C],Compound,IC50 [1] [µM],"IC50 ([2]; Homo sapiens, HCT-116, 72 h) [µM]",also measured
,"O=c1[nH]cc(F)c(=O)[nH]1 [Compound 5-FU, 5-fluorouracil, reference compound]",24.7,32.7,
,"Cc1ccc(-n2cc(CSc3nnc(-c4ccccc4)o3)nn2)cc1 [Compound 6, 4-((5-phenyl–1,3,4-oxadiazol–2-ylthio)methyl)-1-p-tolyl–1H-1,2,3-triazole]",79.8,89.2,
,"Cc1ccccc1-n1cc(CSc2nnc(-c3ccccc3)o2)nn1 [Compound 7, 4-((5-phenyl–1,3,4-oxadiazol-2-ylthio)methyl)–1-o-tolyl-1H–1,2,3-triazole]",30.7,34.3,
111 to 112,"Clc1ccccc1-n1cc(CSc2nnc(-c3ccccc3)o2)nn1 [Compound 8, 4-((5-phenyl–1,3,4-oxadiazol–2-ylthio)methyl)–1-(2-chlorophenyl)-1H–1,2,3-triazole]",73.3,> 100,IC50 [2]: 108 µM
200 to 202,"Clc1ccc(-n2cc(CSc3nnc(-c4ccccc4)o3)nn2)cc1 [Compound 9, 4-((5-phenyl–1,3,4-oxadiazol-2-ylthio)methyl)–1-(4-chlorophenyl)-1H–1,2,3-triazole]",34.4,36.7,
146 to 148,"Brc1cccc(-n2cc(CSc3nnc(-c4ccccc4)o3)nn2)c1 [Compound 10, 4-((5-phenyl–1,3,4-oxadiazol–2-ylthio)methyl)-1-(3-bromophenyl)-1H–1,2,3-triazole]",25.9,32.7,
202 to 204,"O=[N+]([O-])c1ccc(-n2cc(CSc3nnc(-c4ccccc4)o3)nn2)cc1 [Compound 11, 4-((5-phenyl–1,3,4-oxadiazol–2-ylthio)methyl)–1-(4-nitrophenyl)-1H–1,2,3-triazole]",98.2,> 100,IC50 [2]: 102 µM
,"c1ccc(-c2nnc(SCc3cn(-c4ccccc4)nn3)o2)cc1 [Compound 12, 4-((5-phenyl–1,3,4-oxadiazol–2-ylthio)methyl)-1-phenyl-1H–1,2,3-triazole]",5.8,14.8,"fold activity compared to 5-fluorouracil, MCF-7 ([1]; ratio of IC50, MCF-7): four-fold; fold activity compared to pemetrexed, TS [3]: 2.6 fold; IC50 [3, 5]: 2.52 µM; IC50 [4]: > 50 µM; fold activity compared to 5-fluorouracil, HCT-116 [2]: 2.2 fold; fold activity compared to tamoxifen, HCT-116 [2]: 1.7 fold"
119 to 120,"COC(=O)c1ccccc1-n1cc(CSc2nnc(-c3ccccc3)o2)nn1 [Compound 13, Methyl 2-(4-((5-phenyl–1,3,4-oxadiazol-2-ylthio)methyl)-1H–1,2,3-triazol–1-yl)benzoate]",1.26,17.3,"fold activity compared to tamoxifen, MCF-7 ([1]; ratio of IC50, MCF-7): five times; fold activity compared to pemetrexed, TS [3]: 1.5 fold; IC50 [3, 5]: 4.38 µM; IC50 [4]: > 50 µM; fold activity compared to 5-fluorouracil, HCT-116 [2]: 1.9 fold; fold activity compared to tamoxifen, HCT-116 [2]: 1.5 fold"
119 to 120,"O=C(O)c1ccccc1-n1cc(CSc2nnc(-c3ccccc3)o2)nn1 [Compound 14, 2-(4-((5-phenyl–1,3,4-oxadiazol–2-ylthio)methyl)-1H–1,2,3-triazol–1-yl)benzoic acid]",40.6,46.8,
,"Nc1nc2[nH]cc(CCc3ccc(C(=O)N[C@@H](CCC(=O)O)C(=O)O)cc3)c2c(=O)[nH]1 [PTX, pemetrexed, reference compound]",,,IC50 [3]: 6.75 µM
